Data published in patent US11833211B2, “Methods of suppression and treatment of disease comprising administering bicycle peptide ligands specific for EphA2” (BicycleTx Limited, priority 2017, dated 2023).

Columns and labels:
human EphA2 = biological target: T1, human EphA2 (Homo sapiens, UniProt P29317); assay: Fluorescence polarisation competition binding assay (Study 1)
T1 construct: EphA2 (Ecto); polyHis (C); purchased R&D systems (or In-house)

PC-3 xenograft = assay: Study 8: in vivo efficacy in PC-3 xenograft; design: species or system Mus Musculus; settings: 15 mg/kg
mouse EphA2 = biological target: T2, mouse EphA2 (Mus musculus, UniProt Q03145); type: binding
T2 construct: EphA2 (Ecto)
T2 sequence (Q03145 26-538 limits assumed): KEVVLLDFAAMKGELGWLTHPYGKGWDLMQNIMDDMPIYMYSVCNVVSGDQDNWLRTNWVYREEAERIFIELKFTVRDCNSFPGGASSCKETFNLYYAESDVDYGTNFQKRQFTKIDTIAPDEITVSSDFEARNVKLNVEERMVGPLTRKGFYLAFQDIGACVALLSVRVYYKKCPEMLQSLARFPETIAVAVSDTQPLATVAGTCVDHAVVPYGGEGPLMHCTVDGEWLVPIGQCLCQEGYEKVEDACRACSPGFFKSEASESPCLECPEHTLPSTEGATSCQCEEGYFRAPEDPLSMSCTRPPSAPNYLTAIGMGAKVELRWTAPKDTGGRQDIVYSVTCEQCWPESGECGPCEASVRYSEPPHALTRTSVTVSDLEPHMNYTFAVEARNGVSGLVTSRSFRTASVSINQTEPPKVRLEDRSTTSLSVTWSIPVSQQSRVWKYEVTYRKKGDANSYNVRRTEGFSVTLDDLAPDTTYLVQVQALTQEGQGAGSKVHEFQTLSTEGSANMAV

rat EphA2 = biological target: T3, rat EphA2 (Rattus norvegicus, UniProt D3ZBN3); assay: Fluorescence polarisation competition binding, alternative protocol (Study 2)
T3 construct: polyHis (C); made in house
T3 sequence (D3ZBN3 27-205): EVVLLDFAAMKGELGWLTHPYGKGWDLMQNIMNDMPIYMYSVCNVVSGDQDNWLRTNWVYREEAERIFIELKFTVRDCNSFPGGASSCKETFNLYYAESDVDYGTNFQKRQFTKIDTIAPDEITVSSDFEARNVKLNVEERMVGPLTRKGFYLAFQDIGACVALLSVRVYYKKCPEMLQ

T1 sequence (P29317 24-537 limits assumed): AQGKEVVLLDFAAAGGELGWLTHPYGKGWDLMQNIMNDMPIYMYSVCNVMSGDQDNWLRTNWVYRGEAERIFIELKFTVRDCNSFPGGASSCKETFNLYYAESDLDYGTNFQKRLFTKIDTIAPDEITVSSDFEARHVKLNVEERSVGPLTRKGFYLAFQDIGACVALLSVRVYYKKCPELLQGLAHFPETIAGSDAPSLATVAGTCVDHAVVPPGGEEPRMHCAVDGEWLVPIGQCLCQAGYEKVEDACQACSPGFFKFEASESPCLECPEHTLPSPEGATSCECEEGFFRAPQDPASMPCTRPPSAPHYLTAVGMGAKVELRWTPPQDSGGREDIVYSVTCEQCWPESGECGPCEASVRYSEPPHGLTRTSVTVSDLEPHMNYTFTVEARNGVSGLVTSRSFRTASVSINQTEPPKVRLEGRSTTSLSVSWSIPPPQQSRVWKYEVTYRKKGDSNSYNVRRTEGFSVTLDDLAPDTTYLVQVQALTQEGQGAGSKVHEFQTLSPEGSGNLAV

Compound: COc1cc2cc(c1Cl)N(C)C(=O)C[C@@H](OC(=O)[C@@H](C)N(C)C(=O)CCSSC(C)CCC(=O)NCCC(=O)N(C)CC(=O)N(C)CC(=O)N(C)CC(=O)N(C)CC(=O)N(C)CC(=O)N(C)CC(=O)N(C)CC(=O)N(C)CC(=O)N(C)CC(=O)N(C)CC(=O)N[C@@H](C)C(=O)N[C@@H](CCCCNC(=N)N)C(=O)N[C@@H](CC(=O)O)C(=O)N[C@H]1CSCCC(=O)N3CN4CN(C3)C(=O)CCSC[C@H](NC(=O)[C@H](CC(C)C)NC(=O)[C@@H]3CCCN3C(=O)[C@H](CC(N)=O)NC(=O)[C@H](C(C)C)NC(=O)[C@H](CC(C)C)NC(=O)[C@@H]3C[C@@H](O)CN3C1=O)C(=O)N[C@@H](CC(C)C)C(=O)N[C@@H](Cc1c[nH]cn1)C(=O)N1CCC[C@H]1C(=O)N[C@H](CC(=O)O)C(=O)N[C@@H](Cc1c[nH]c3ccccc13)C(=O)N[C@@H](CCCCNC(=N)N)C(=O)N[C@H](C(N)=O)CSCCC4=O)[C@@]1(C)O[C@@H]1[C@@H](C)[C@H]1C[C@](O)(NC(=O)O1)C(OC)/C=C/C=C(\C)C2 (stereo partly drawn) [BCY6028]
- competition binding in the EphA2 competition binding assay (in words) (human EphA2): excellent competition binding

Compound: CC(=O)O[C@@]12CO[C@@H]1C[C@H](O)[C@@]1(C)C(=O)[C@H](O)C3=C(C)[C@@H](OC(=O)[C@H](O)[C@@H](NC(=O)OC(C)(C)C)c4ccccc4)C[C@@](O)([C@@H](OC(=O)c4ccccc4)[C@H]21)C3(C)C [Docetaxel]
- body weight (PC-3 xenograft; after the first dosing): severe animal body weight loss
- anti-tumor activity (in words) (PC-3 xenograft; qw): significant anti-tumor activity
- tumor relapse after ceasing the treatment (PC-3 xenograft; qw): obvious tumor relapse

Compound: (β-Ala)-Sar10-A(HArg)D-Ci(HyP)LVNPLCiiLHP(D-Asp)W(HArg)Ciii [BCY6099]
- affinity to mouse EphA2 (in words) (mouse EphA2): high affinity
- affinity to rat EphA2 (in words) (rat EphA2): high affinity
